From article PMC2688476, “Low affinity glucocorticoid binding site ligands as potential anti-fibrogenics” (Comparative Hepatology, 2009)
Counter-ions that a name gives are not always drawn. Like-named read-outs stand apart in the source and are kept apart here.

Legend:
human myofibroblasts = assay: Fibrogenic marker mRNA transcripts (TGFβ, TIMP1, collagen 1A1) in human myofibroblasts, qRT-PCR; format: cell-based; conditions: treatment for 19 days
Description: Quantitative transcript expression was examined after reverse transcription (using a Taqman reverse transcription kit (Applied Biosystems)) using a PE Applied Biosystems ABI7700 and PE Applied Biosystems Gene Expression Assay™, incorporating sequence-specific forward, reverse and fluorescently labelled probes (see Table 2).

human HSCs = assay: Human HSC trans-differentiation/proliferation (confluence, α-sma); format: cell-based; conditions: confluence at day 12
Method: (§1) Figure 5 Screening for inhibitors of trans-differentiation in rat and human HSCs – Part 1. Rat HSCs were isolated and cultured for 2 days (T0) whereupon cells were treated with the indicated compound as outlined in methods section. After 9 days, cells were analyzed by Western blotting for α-smooth muscle actin (α-sma). Each lane contains 10 μg total protein/lane, results typical of at least 3 separate experiments (a). Human HSCs were treated with the indicated compound and confluence determined in randomly selected fields. Data are the mean and standard deviation confluence at day 12 of 3 separate treatment dishes from the same donor, typical of at least 3 separate donors (b).
Figure 6 Screening for inhibitors of trans-differentiation in rat and human HSCs – Part 2. Photomicrographs of human HSCs at day 12 of culture with the indicated treatment (a); levels of expression of α-smooth muscle actin (α-sma) (b) and levels of expression of fibrogenic marker mRNA transcripts in human HSCs after treatment selected compounds for 19 days. Data are the mean and standard deviation relative transcript level from 3 separate treatments on cells from the same donor, typical of at least 3 separate donors (c).
(§2) HSCs were isolated from rats (250–300 g body weight, Harlan, UK) by sequential pronase/collagenase perfusion of the liver followed by density gradient centrifugation and elutriation as previously outlined. Human HSCs were isolated by an essentially similar procedure using discarded tissue from patients undergoing a hepatectomy with patient consent and ethical approval by the Grampian Regional Ethical Committee. HSCs were seeded onto plastic culture dishes and cultured in Dulbecco's modified Eagle Medium (DMEM) containing 4.5 g/l of glucose and supplemented with 5% or 16% (v/v) fetal calf serum (for rat or human respectively), […] penicillin, 80 μg/ml streptomycin and 32 μg/ml gentamycin. Additional treatments were made by addition of compounds in an ethanol vehicle (stock solutions at 1000× final concentration). Ethanol at 0.1% (v/v) acted as control. Frequency of treatment (3 treatments per week/2 medium changes per week), as previously described.

[1] = target: low affinity glucocorticoid binding site (LAGS) in rat liver microsomes (Rattus norvegicus, UniProt P70580); assay: Competition with radiolabelled dexamethasone for specific binding to rat liver microsomes (LAGS activity); conditions: for IC50: vs radiolabelled dexamethasone
Chain of low affinity glucocorticoid binding site (LAGS) in rat liver microsomes (P70580 2-195): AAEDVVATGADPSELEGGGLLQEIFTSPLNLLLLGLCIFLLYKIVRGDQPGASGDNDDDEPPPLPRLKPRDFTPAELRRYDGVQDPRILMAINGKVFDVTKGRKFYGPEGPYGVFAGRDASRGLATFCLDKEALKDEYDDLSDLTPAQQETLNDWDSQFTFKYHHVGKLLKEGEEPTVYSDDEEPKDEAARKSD
Method: A small volume of each incubation was removed to determine the total ligand concentration ([L0]) prior to removal of free unbound ligand by dextran/charcoal adsorption. […] Free ligand concentration at equilibrium was calculated by subtracting specifically bound ligand at equilibrium from the total ligand concentration (i.e. [L0] - [LRe]) and assumes receptor-ligand stoichiometry of 1:1.
In brief, rats were anaesthetized with pentobarbital and a 16G cannula inserted into the hepatic portal vein and secured. […] The liver was then excised and chopped roughly with ice-cooled TS buffer (10 mM Tris/HCl pH 7.4 containing 250 mM sucrose) and disrupted using a Potter-Elvehjem homogenisor. The resultant homogenate was then centrifuged at 12,000 g for 20 minutes at 4°C and the supernatant retained and centrifuged at 100,000 g for 60 minutes at 4°C. The resultant "microsomal" pellet was re-suspended in fresh TS buffer and re-centrifuged at 100,000 g to obtain a washed microsomal pellet. […] After overnight incubation on ice, free ligand was removed by charcoal dextran adsorption and bound radioligand determined in supernatants by liquid scintillation, essentially as previously described.

CYP3A4 = assay: Screening for PXR activators in human hepatocytes via CYP3A induction (Western blot); format: cell-based; conditions: 24 hours treatment, Western blot
[2] = target: progesterone binding protein in pig liver microsomes; conditions: read-out: IC50% for competition for progesterone binding protein; cited from earlier work
rPGRMC1 = target: T1, rPGRMC1 (Rattus norvegicus, UniProt P70580); assay: Dexamethasone binding competition in COS-7 cells transfected with pSG5-rPGRMC1; conditions: unlabelled competitor, Fig. 2e
T1 construct: the full length cDNA for rPGRMC1 was cloned from rat myofibroblasts and expressed in COS-7 cells; expressed in transfected cells; host or cells: COS-7 cells transfected with pSG5-rPGRMC1
T1 sequence (P70580 whole entry): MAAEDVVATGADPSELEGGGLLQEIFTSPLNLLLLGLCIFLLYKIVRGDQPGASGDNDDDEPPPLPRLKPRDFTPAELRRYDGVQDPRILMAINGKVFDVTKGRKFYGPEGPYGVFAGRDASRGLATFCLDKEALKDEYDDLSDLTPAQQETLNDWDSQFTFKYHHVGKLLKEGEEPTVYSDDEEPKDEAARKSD
Method: Western blot for rPGRMC1 in various cell fractions using the anti-IZ Ab in COS-7 cells transfected with the indicated construct. All lanes were loaded with 10 μg protein/lane. Note, HC5 is a truncated form of rPGRMC1 cloned from rat kidney (a). Western blot for rPGRMC1 using the anti-IZ Ab and CYP2E1 (lower blot). Rat hepatocytes were cultured for 24 hours to allow attachment (T0) and then treated for 24 hours with the indicated ligand or ethanol vehicle prior to analysis. Each lane contains 10 μg total protein/well, typical of 3 separate experiments (b). […] The percentage of cells that stained positive for beta galactosidase activity (grey bars) was determined in situ in separate wells by examining at least 5 randomly selected low power fields. […] The percent of binding in the presence of unlabelled competitors was determined after subtraction of non-specific binding. […]
COS-7 cells were transfected at 30–50% confluency using Effectene transfection reagent (Qiagen, Southampton, UK) essentially according to the manufacturer's instructions with either pSG5 empty vector, pSG5-rPGRMC1 or the β-galactosidase-encoding pcDNA3.1e/lacZ vector (Invitrogen, Paisley, UK). Thirty hours after transfection, β-galactosidase activity was determined in fixed cells,in situ. […]

CYP3A1/3A23 = assay: Screening for PXR activators in rat hepatocytes via CYP3A induction (Western blot); format: cell-based; conditions: 10 μM for 24 hours (PCN 20 μM), Western blot
rat HSCs = assay: Rat HSC-to-myofibroblast trans-differentiation (α-smooth muscle actin Western blot); format: cell-based; conditions: α-sma Western blot after 9 days of treatment
Method: as §1, §2

[3] = read-out: IC50% (competition of substituted progestins for binding to rat liver microsomes), Additional file 1
[4] = read-out: IC50% (competition of dexamethasone derivatives for binding to rat liver microsomes), Additional file 2

CO[C@H]1/C=C/O[C@@]2(C)Oc3c(C)c(O)c4c(O)c(c(/C=N/N5CCN(C)CC5)c(O)c4c3C2=O)NC(=O)/C(C)=C\C=C\[C@H](C)[C@H](O)[C@@H](C)[C@@H](O)[C@@H](C)[C@H](OC(C)=O)[C@@H]1C [rifampicin, reference compound]
expression of TGFβ, TIMP1 and collagen 1A1 mRNAs in human myofibroblasts (human myofibroblasts): inhibited the expression of all mRNAs | inhibitory activity on human HSC trans-differentiation (human HSCs): significant inhibitory activity

CC(=O)[C@H]1CC[C@H]2[C@@H]3C[C@@H](O)C4=CC(=O)CC[C@]4(C)[C@H]3CC[C@]12C [6β-hydroxyprogesterone]
IC50 [1, 3]: 10 µM

C[C@H]1C[C@@H]2[C@H]([C@@H](O)C[C@@]3(C)[C@H]2CC[C@]3(O)C(=O)CO)[C@@]2(C)C=CC(=O)C=C12 [methylprednisolone, reference compound]
CYP3A4 expression (induction) in human hepatocytes (CYP3A4): evidence of induction

C[C@@H]1C[C@H]2[C@@H]3CCC4=CC(=O)C=C[C@]4(C)[C@@]3(F)[C@@H](O)C[C@]2(C)[C@@]1(O)C(=O)CO [dexamethasone, reference compound]
IC50 [2]: > 100 µM | maximal binding site concentration ([1]; radiolabelled dexamethasone, rat liver microsomes): 8.3 pmoles/mg of microsomal protein

CC1CC2C3CCC4=CC(=O)C=CC4(C)C3(F)C(O)CC2(C)C1(O)C(=O)O (stereo not drawn) [17β-carboxylic acid derivative, 9α-fluoro 16α-methyl-11β,17α-dihydroxy-1,4-pregn-3-one 17-carboxylic acid]
IC50 [1, 4]: 100 µM

biotinylated dexamethasone
IC50 [1, 4]: > 100 µM

CC(=O)O[C@@H]1C[C@]2(C)[C@@H](C(C)=O)CC[C@H]2[C@@H]2CCC3=CC(=O)CC[C@]3(C)[C@H]21 [11α-progesterone acetate]
IC50 [1, 3]: 0.1 µM

CC(=O)[C@H]1[C@H](C#N)C[C@H]2[C@@H]3CC=C4C[C@@H](O)CC[C@]4(C)[C@H]3CC[C@@]21C [PCN, pregnenolone 16α carbonitrile]
competition with dexamethasone for binding to COS-7 cell extracts over-expressing rPGRMC1 (rPGRMC1): significant competition | CYP2E expression in rat hepatocytes (CYP3A1/3A23): no affect | CYP3A1/3A23 expression (induction) in rat hepatocytes (CYP3A1/3A23): induced | inhibition of rat HSC trans-differentiation (rat HSCs): inhibited

CC(=NOCC(=O)O)[C@H]1CC[C@H]2[C@@H]3CCC4=C[C@@H](O)CC[C@]4(C)[C@H]3CC[C@]12C [4 pregnene-3β-ol-20-one carboxymethyloxime]
IC50 [1, 3]: > 100 µM

C[C@]12CCC(=O)C=C1CC[C@@H]1[C@@H]2CC[C@]2(C)C(=O)CC[C@@H]12 [androstenedione, reference compound]
IC50 [1, 3]: 5 µM

CC(=O)[C@H]1CC[C@H]2[C@@H]3C[C@@H](O)C4=CC(=O)CC[C@]4(C)[C@H]3CC[C@]12C [6α-hydroxyprogesterone]
IC50 [1, 3]: 5 µM

CC(=O)[C@H]1CC[C@H]2[C@@H]3CCC4=C[C@@H](O)CC[C@]4(C)[C@H]3CC[C@]12C [4 pregnene-3β-ol-20-one]
IC50 [1, 3]: 0.5 µM

CC(=O)[C@H]1CC[C@H]2[C@@H]3CCC4=CC(=O)CC[C@]4(C)[C@H]3[C@H](OS(=O)(=O)c3ccc(C)cc3)C[C@]12C [11α-progesterone tosylate]
IC50 [1, 3]: 10 µM

CC(=O)O[C@@H]1C=C2CC[C@H]3[C@@H]4CC[C@H](C(C)=O)[C@@]4(C)CC[C@@H]3[C@@]2(C)CC1 [4 pregnene-3β-ol-20-one acetate]
IC50 [1, 3]: 0.5 µM

CC(=O)[C@H]1CC[C@H]2[C@@H]3CCC4=CC(=O)CC[C@]4(C)[C@H]3[C@H](O)C[C@]12C [11α-hydroxyprogesterone]
IC50 [1, 3]: 0.1 µM

C[C@@H]1C[C@H]2[C@@H]3CCC4=CC(=O)C=C[C@]4(C)[C@@]3(F)[C@@H](O)C[C@]2(C)[C@@]1(O)C(=O)COS(C)(=O)=O [dexamethasone mesylate]
IC50 [1, 4]: 10 µM

CC(=O)O[C@@H]1C[C@H]2[C@@H]3CC[C@H](C(C)=O)[C@@]3(C)CC[C@@H]2[C@@]2(C)CCC(=O)C=C12 [6β-progesterone acetate]
IC50 [1, 3]: 0.5 µM

CCC(=O)O[C@H]1CC[C@H]2[C@@H]3CCC4=CC(=O)CC[C@]4(C)[C@H]3CC[C@]12C [testosterone proprionate, reference compound]
IC50 [1, 3]: 10 µM

CCOC(=O)[C@H]1CC[C@H]2[C@@H]3CCC4=CC(=O)CC[C@]4(C)[C@H]3CC[C@]12C [4 androstene-3-one 17β-carboxylic acid ethyl ester]
IC50 [1, 3]: 0.1 µM

CC(=O)[C@H]1CC[C@H]2[C@@H]3CCC4=CC(=O)CC[C@]4(C)[C@H]3[C@@H](O)C[C@]12C [11β-hydroxyprogesterone]
inhibitory activity on human HSC trans-differentiation (human HSCs): significant inhibitory activity

CC(=O)[C@H]1CC[C@H]2[C@@H]3CCC4=CC(=O)CC[C@]4(C)[C@H]3CC[C@]12C [progesterone, reference compound]
inhibition of rat HSC trans-differentiation (rat HSCs): markedly inhibited | inhibitory activity on human HSC trans-differentiation (human HSCs): significant inhibitory activity | competition for dexamethasone binding to rat liver microsomes (in words) ([1]; rat liver microsomes): competed
